Measured values from US20190309066A1, “COMBINATION THERAPY FOR THE TREATMENT OF SOLID AND HEMATOLOGICAL CANCERS” (Arch Oncology, Inc., priority 2017, published 2019).
Where “and” joins values, the source holds several entries; their conditions need not be identical. Identical values can stand only once.

Tested on: RPMI-8226 tumors
Test: RPMI-8226 multiple myeloma xenograft in NSG mice
Type: in vivo, mouse
Source text: The purpose of this experiment was to evaluate the efficacy of anti-CD47 antibodies as a single agent and in combination with the proteasome inhibitor Bortezomib in the tumor growth inhibition in vivo in a xenograft mouse model of multiple myeloma. RPMI-8226 human multiple myeloma cells (ATCC #CCL-155, Manassas, Va.) were maintained in RPMI-1640 (Lonza; Walkersville, Md.) supplemented with 10% Fetal Bovine Serum (FBS; Omega Scientific; Tarzana, Calif.) and 1% Penicillin/Streptomycin (Corning, Manassas, Va.) within a 5% CO2 atmosphere. Cultures were expanded in tissue culture flasks.
Female NSG (NOD-Cg-Prkdc^scidI12rg^tm1Wjl/SzJ) were obtained from Jackson Laboratory (Bar Harbor, Me.) at 5-6 weeks of age. Mice were acclimated prior to handling and housed in microisolator cages (Lab Products, Seaford, Del.) under specific pathogen-free conditions. Mice were fed Teklad Global Diet® 2920× irradiated laboratory animal diet (Envigo, Formerly Harlan; Indianapolis, Ind.) and provided autoclaved water ad libitum. All procedures were carried out under the institutional guidelines of Translational Drug Development Institutional Animal Care and Use Committee (Protocol #18105). Animals were identified using transponders.
Female NSG mice were inoculated subcutaneously in the right flank with 0.1 mL of a 30% RPMI/70% Matrigel™ (BD Biosciences; Bedford, Mass.) mixture containing a suspension of 1×10^7 RPMI-8226 tumor cells. Fifteen days following inoculation, mice were randomized Test articles human IgG2 (hIgG2), an anti-CD47 antibody, and Bortezomib (LC Labs, Woburn, Mass.) were administered by intravenous (IV) injection. hIgG2 and anti-CD47 mAb were dosed on Days 0, 7, 14, 21, 28, and 35, while Bortezomib was dosed on Days 1, 4, and 12. as described below in Table 12.
Mean tumor growth inhibition (TGI) was calculated for Day 48 (the final day all mice were on study) utilizing the following formula.
The mean TS of each group was calculated and reported.
All statistical analyses in the xenograft study were performed with Prism GraphPad® software. Differences in Day 48 tumor volumes were confirmed using a one-way ANOVA, unpaired, parametric with the Tukey's Multiple Comparison test with Welch's correction. A two-tailed Student's t-test with Welch's correction was also used to verify any differences between each group and the vehicle control.
For statistical analysis purpose, any mouse sacrificed as an long term survivor (LTS) was assigned a death day of Day 99.

CC(C)C[C@H](NC(=O)[C@H](Cc1ccccc1)NC(=O)c1cnccn1)B(O)O [Bortezomib]
Mean Day of Survival Days ± SEM (Bortezomib 1 mg/kg): 76.8 ± 1.6 days
Median Day of Survival (Min-Max) (Bortezomib 1 mg/kg): 78 (70-84) Days
Day 48 Mean Tumor Volume (mm^3) (Bortezomib 1 mg/kg IV): 177 ± 20 mm^3
tumor shrinkage (in words) (Bortezomib 1 mg/kg IV monotherapy): no tumor shrinkage was recorded
Day 48 % TGI (Bortezomib 1 mg/kg IV, vs hIgG2 control): 96.2% and 96.2 (10) %
Day 48 Outcome (ANOVA), tumor volume vs hIgG2 (Group 1) (P value, Bortezomib 1 mg/kg): P < 0.05
Day 48 Outcome (Student's t-test), tumor volume vs hIgG2 (Group 1) (P value, Bortezomib 1 mg/kg): P < 0.05
Survival Log-Rank Outcome vs hIgG2 (Group 1) (P value, Bortezomib 1 mg/kg): P < 0.05
